Reference: ChEMBL document CHEMBL5365543, “Benzamidine Conjugation Converts Expelled Potential Active Agents into Antifungals against Drug-Resistant Fungi” (J Med Chem, 2023)
In brackets after ≈: the same amount, converted by molar mass. Activity calls are given as the source filed them. The rule behind the calls is not given here.

Legend:
Candida albicans [1] = assay: microbe, parasite or virus in culture; type: functional; settings: DSY654, time 24 hrs
Description: Antifungal activity against efflux pump-deficient Candida albicans DSY654 assessed as inhibition of fungal growth measured after 24 hrs by CLSI based microtiter plate analysis

[Candida] auris [2] = Antifungal activity against clinical isolate fluconazole-resistant Candida auris CBS12774 assessed as inhibition of fungal growth measured after 24 hrs by CLSI based microtiter plate analysis; type: functional; settings: Candidozyma auris
Candida albicans [3] = assay: Antifungal activity against clinical isolate Candida albicans YEM15 overexpressing efflux pump CdrL and Cdr2 assessed as inhibition of fungal growth measured after 24 hrs by CLSI based microtiter plate analysis; type: functional
Candida albicans [4] = assay: Antifungal activity against clinical isolate fluconazole-resistant Candida albicans G5 harbouring MRR1 mutation overexpressing MdrL assessed as inhibition of fungal growth measured after 24 hrs by CLSI based microtiter plate analysis; type: functional
Candida tropicalis = assay: Antifungal activity against clinical isolate fluconazole-resistant Candida tropicalis CT10 assessed as inhibition of fungal growth measured after 24 hrs by CLSI based microtiter plate analysis; type: functional
Candida albicans [5] = assay: Antifungal activity against clinical isolate Candida albicans SCMRRIR34MPG2A harbouring MRR1 mutation overexpressing efflux pump MdrL assessed as inhibition of fungal growth measured after 24 hrs by CLSI based microtiter plate analysis; type: functional
Candida albicans [6] = assay: Antifungal activity against wild-type Candida albicans SC5314 assessed as inhibition of fungal growth measured after 24 hrs by CLSI based microtiter plate analysis; type: functional
[7] = Cytotoxicity against mouse L929 cells assessed as inhibition of cell growth measured after 4 hrs by MTT assay; type: toxicity, cell-based
Candida albicans [8] = assay: Antifungal activity against clinical isolate fluconazole-resistant Candida albicans DSY296 harbouring TAC1 mutation overexpressing efflux pump CdrL and Cdr2 assessed as inhibition of fungal growth measured after 24 hrs by CLSI based microtiter plate analysis; type: functional
Candida albicans [9] = assay: Antifungal activity against clinical isolate fluconazole-resistant Candida albicans CA632 assessed as inhibition of fungal growth measured after 24 hrs by CLSI based microtiter plate analysis; type: functional
[10] = Cytotoxicity against human HBE cells assessed as inhibition of cell growth measured after 4 hrs by MTT assay; type: toxicity, cell-based
[Candida] auris [11] = Antifungal activity against clinical isolate fluconazole-resistant Candida auris CBS12776 assessed as inhibition of fungal growth measured after 24 hrs by CLSI based microtiter plate analysis; type: functional; settings: Candidozyma auris
[12] = Induction of hemolysis in mouse RBC cells at 2 to 32 microg/ml incubated for 60 mins by absorbance based analysis; type: toxicity, cell-based, Erythrocyte; settings: red blood cells (erythrocytes), at 2 to 32 µg/mL, dose 2-32 µg/ml, read-out: Activity
Candida albicans [13] = assay: Antifungal activity against clinical isolate Candida albicans YEM13 overexpressing efflux pump MdrL assessed as inhibition of fungal growth measured after 24 hrs by CLSI based microtiter plate analysis; type: functional
Nakaseomyces glabratus = assay: Antifungal activity against clinical isolate fluconazole-resistant Candida glabrata CG2 assessed as inhibition of fungal growth measured after 24 hrs by CLSI based microtiter plate analysis; type: functional
Candida albicans [14] = assay: Antifungal activity against clinical isolate fluconazole-resistant Candida albicans Gu5 harbouring TAC1 mutation overexpressing efflux pump CdrL and Cdr2 assessed as inhibition of fungal growth measured after 24 hrs by CLSI based microtiter plate analysis; type: functional
Cryptococcus neoformans = assay: Antifungal activity against clinical isolate fluconazole-resistant Cryptococcus neoformans H99 assessed as inhibition of fungal growth measured after 24 hrs by CLSI based microtiter plate analysis; type: functional
[15] = Drug accumulation in wild-type Candida albicans SC5314 at 50 microg/ml incubated for 3 hrs by HPLC analysis; type: ADME; settings: dose 50 µg/ml
Candida albicans [16] = assay: Antifungal activity against clinical isolate Candida albicans SCUPC2R14MPG2A harbouring UPC2 mutation overexpressing […] Erg11 assessed as inhibition of fungal growth measured after 24 hrs by CLSI based microtiter plate analysis; type: functional
Candida albicans [17] = assay: Drug accumulation in Candida albicans SC5314 measured per 10^8 cells incubated for 3 hrs by HPLC analysis; type: functional, organism-based
[18] = Drug accumulation in wild-type Candida albicans SC5314 at 20 microg/ml incubated for 2 hrs by flow cytometery analysis; type: ADME; settings: dose 20 µg/ml
Candida albicans [19] = assay: Antifungal activity against Candida albicans assessed as inhibition of fungal growth measured after 24 hrs by CLSI based microtiter plate analysis; type: functional
Cell membrane = assay: Disruption of membrane integrity in Candida albicans SC5314 at 16 to 32 microg/ml incubated for 1 hr by Sytox green staining based fluorescence method; type: subcellular; settings: dose 16-32 µg/ml
[20] = Drug accumulation in Candida albicans YEM15 expressing efflux pump CdrL and Cdr2 at 20 microg/ml incubated for 2 hrs by flow cytometery analysis; type: ADME; settings: dose 20 µg/ml
[21] = Drug accumulation in Candida albicans YEM13 expressing efflux pump MdrL at 20 microg/ml incubated for 2 hrs by flow cytometery analysis; type: ADME; settings: dose 20 µg/ml
[22] = Drug accumulation in Candida albicans SC5314 by confocal laser scanning microscopic analysis; type: ADME
[23] = Drug localization in mitochondria of Candida albicans SC5314 incubated for 30 mins by MitoTracker dye based confocal laser scanning microscopic analysis; type: ADME; settings: 0.5 h
[24] = Drug accumulation in Candida albicans TOM70-GFP-CAI4 at 20 microg/ml incubated for 30 mins by confocal laser scanning microscopic analysis; type: ADME; settings: 0.5 h, dose 20 µg/ml
Candida albicans [25] = assay: Induction of drug resistance in wild-type Candida albicans SC5314 assessed as change in MIC at 0.5 times of MIC measured after 30 passages by broth microdilution method; type: functional
[26] = Candida albicans, SC5314, 24 h, read-out: MIC80
[27] = Candida albicans, SC5314, read-out: MIC80

MIC80 (Candida albicans [1]) [µg/mL]	MIC80 (Candida albicans [6]; [27]) [µg/mL]	Structure (SMILES)	MIC80 ([Candida] auris [2]) [µg/mL]	MIC80 (Candida albicans [3]) [µg/mL]	MIC80 (Candida albicans [4]) [µg/mL]	MIC80 (Candida tropicalis) [µg/mL]	MIC80 (Candida albicans [5]) [µg/mL]	MIC80 (Candida albicans [6]; [26]) [µg/mL]	MIC80 (Candida albicans [8]) [µg/mL]	MIC80 (Candida albicans [9]) [µg/mL]	MIC80 ([Candida] auris [11]) [µg/mL]	hemolysis at 1 h [12] [%]	MIC80 (Candida albicans [13]) [µg/mL]	MIC80 (Nakaseomyces glabratus) [µg/mL]	MIC80 (Candida albicans [14]) [µg/mL]	MIC80 (Cryptococcus neoformans) [µg/mL]	Drug uptake [15]	MIC80 (Candida albicans [16]) [µg/mL]	MIC (Candida albicans [6])	also measured
4	8	C=C1C[C@@]23CC[C@H]4[C@@](C)(CCC[C@@]4(C)C(=O)OCCCCC[n+]4c(C)cc(N)c5ccccc54)[C@@H]2CC[C@]1(O)C3.[I-]										< 2								IC50 at 4 h [7]: 8.34 µg/mL; IC50 at 4 h [10]: 6.53 µg/mL
32	> 256	C=C1C[C@@]23CC[C@H]4[C@@](C)(CCC[C@@]4(C)C(=O)OCC[N+](C)(CC)CC)[C@@H]2CC[C@]1(O)C3.[I-]																		Drug uptake (Candida albicans [17]): inactive
		CCN(CC)c1ccc2c(-c3ccccc3C(=O)N3CCN(Cc4cn(CCCOc5ccc(C(=N)N)cc5)nn4)CC3)c3ccc(=[N+](CC)CC)cc-3oc2c1.[Cl-]										< 2								Drug uptake [18]: Active; MIC (Candida albicans [19]): > 128 µg/mL; Activity (Cell membrane): inactive; Drug uptake [20]: Active; Drug uptake [21]: Active; Drug uptake [22]: Active; Drug uptake [23]: Active; Drug uptake [24]: Active
32 (≈ 105 µM)	> 256	C=C1C[C@@]23CC[C@@H]4[C@](C)(CN)CCC[C@@]4(C)[C@@H]2CC[C@]1(O)C3																		Drug uptake (Candida albicans [17]): inactive
		C=C1C(=O)[C@@]23CC[C@H]4[C@@](C)(CCC[C@@]4(C)C(=O)OCCCOc4ccc(C(=N)N)cc4)[C@@H]2CC[C@]1(O)C3	8 (≈ 15.7 µM)	4 (≈ 7.86 µM)	4 (≈ 7.86 µM)	4 (≈ 7.86 µM)	8 (≈ 15.7 µM)	4 (≈ 7.86 µM)	4 (≈ 7.86 µM)	4 (≈ 7.86 µM)	8 (≈ 15.7 µM)		4 (≈ 7.86 µM)	8 (≈ 15.7 µM)	8 (≈ 15.7 µM)	8 (≈ 15.7 µM)	Active	4 (≈ 7.86 µM)		
		C[C@H]1[C@H](C)CC[C@]2(C(=O)OCCCOc3ccc(C(=N)N)cc3)CC[C@]3(C)C(=CC[C@@H]4[C@@]5(C)CC[C@H](O)C(C)(C)[C@@H]5CC[C@]43C)[C@H]12	8 (≈ 12.6 µM)	4 (≈ 6.32 µM)	4 (≈ 6.32 µM)	4 (≈ 6.32 µM)	4 (≈ 6.32 µM)	4 (≈ 6.32 µM)	4 (≈ 6.32 µM)	4 (≈ 6.32 µM)	4 (≈ 6.32 µM)		4 (≈ 6.32 µM)	4 (≈ 6.32 µM)	4 (≈ 6.32 µM)	4 (≈ 6.32 µM)	Active	4 (≈ 6.32 µM)	inactive	Activity (Candida albicans [25]): Active
		N=C(N)c1ccc(OCCCN2CCC(=C3c4ccc(Cl)cc4CCc4cccnc43)CC2)cc1	64 (≈ 131 µM)	32 (≈ 65.7 µM)	32 (≈ 65.7 µM)	32 (≈ 65.7 µM)	32 (≈ 65.7 µM)	32 (≈ 65.7 µM)	64 (≈ 131 µM)	32 (≈ 65.7 µM)	64 (≈ 131 µM)		32 (≈ 65.7 µM)	64 (≈ 131 µM)	64 (≈ 131 µM)	16 (≈ 32.9 µM)	Active	32 (≈ 65.7 µM)	inactive	
		Cc1ccc(Sc2ccccc2N2CCN(CCCOc3ccc(C(=N)N)cc3)CC2)c(C)c1	8 (≈ 16.9 µM)	4 (≈ 8.43 µM)	8 (≈ 16.9 µM)	4 (≈ 8.43 µM)	4 (≈ 8.43 µM)	4 (≈ 8.43 µM)	4 (≈ 8.43 µM)	4 (≈ 8.43 µM)	8 (≈ 16.9 µM)		4 (≈ 8.43 µM)	8 (≈ 16.9 µM)	4 (≈ 8.43 µM)	4 (≈ 8.43 µM)	Active	4 (≈ 8.43 µM)	inactive	

Structure (SMILES)	MIC80 (Candida albicans [1]) [µg/mL]	MIC80 (Candida albicans [6]; [27]) [µg/mL]	MIC80 ([Candida] auris [2]) [µg/mL]	MIC80 (Candida albicans [3]) [µg/mL]	MIC80 (Candida albicans [4]) [µg/mL]	MIC80 (Candida tropicalis) [µg/mL]	MIC80 (Candida albicans [5]) [µg/mL]	MIC80 (Candida albicans [6]; [26]) [µg/mL]	MIC80 (Candida albicans [8]) [µg/mL]	MIC80 (Candida albicans [9]) [µg/mL]	MIC80 ([Candida] auris [11]) [µg/mL]	hemolysis at 1 h [12] [%]	MIC80 (Candida albicans [13]) [µg/mL]	MIC80 (Nakaseomyces glabratus) [µg/mL]	MIC80 (Candida albicans [14]) [µg/mL]	MIC80 (Cryptococcus neoformans) [µg/mL]	Drug uptake [15]	MIC80 (Candida albicans [16]) [µg/mL]	MIC (Candida albicans [6])	also measured
C=C1C[C@@]23CC[C@H]4[C@@](C)(CCC[C@@]4(C)C(=O)OCCCOc4ccc(C(=N)N)cc4)[C@@H]2CC[C@]1(O)C3	2 (≈ 4.04 µM)		16 (≈ 32.3 µM)	8 (≈ 16.2 µM)	8 (≈ 16.2 µM)	8 (≈ 16.2 µM)	8 (≈ 16.2 µM)	4 (≈ 8.09 µM)	8 (≈ 16.2 µM)	8 (≈ 16.2 µM)	16 (≈ 32.3 µM)	< 2	8 (≈ 16.2 µM)	8 (≈ 16.2 µM)	8 (≈ 16.2 µM)	16 (≈ 32.3 µM)	Active	8 (≈ 16.2 µM)		MIC80 (Candida albicans [6]; 24 h): 8 µg/mL (≈ 16.2 µM); IC50 at 4 h [7]: 23.6 µg/mL (≈ 47.7 µM); IC50 at 4 h [10]: > 32 µg/mL
